Reference: patent US6008226A, “Substituted N-arylmethyl and heterocylylmethyl-1H-pyrazolo[3,4-b]quinolin-4-amines and compositions and methods of use thereof” (Sanofi-Synthelabo, priority 1998, dated 1999)

Test system: Spontaneously hypertensive rats
Assay: reversing or reducing nitrate-induced tolerance in spontaneously hypertensive rats
Type: in vivo, rat
Description: Spontaneously hypertensive rats (17-25 weeks of age) are made nitroglycerin tolerant by repeated administration of high doses of nitroglycerin (100 mg/kg, s.c., 3 times/day for 3 consecutive days). To confirm tolerance challenge doses of nitroglycerin are administered intravenously at doses ranging from 1-300 μg/kg and the maximum change in mean arterial pressure (MAP) for each dose is recorded. Groups of tolerant rats are then pretreated with the compounds of the invention (tolerant pretreated group) or with vehicle (0.05 N NaOH) (tolerant vehicle pretreated group) intravenously 5-10 minutes prior to administration of challenge doses of nitroglycerin. The administration of challenge doses of nitroglycerin to non-tolerant rats (the non-tolerant group) causes a dose-dependent decrease in MAP of between 10 to 40 mm Hg. […] It is expected that the administration of challenge doses of nitroglycerin to tolerant rats which have been pretreated with the compounds of the invention (tolerant pretreated group) should result in varying degrees of restoration of the hypotensive response. The area under the dose-MAP curve is then calculated for the non-tolerant group and for the tolerant vehicle pretreated group and the tolerant pretreated group. The percent reversal of nitrate-inducedtolerance is then calculated as follows:
Percent Reversal=(AUCtol-pretreated -AUCtol-veh)/(AUCnontol […]

Question: Which “dose-dependent decrease in MAP” value (non-tolerant rats, nitroglycerin challenge 1-300 μg/kg iv) does the source give for `O=[N+]([O-])OCC(CO[N+](=O)[O-])O[N+](=O)[O-]` [nitroglycerin] here?
Answer: 10 to 40 mm Hg

Question: What about the “hypotensive response to challenge doses of nitroglycerin” value (tolerant vehicle pretreated group, 1-300 μg/kg iv) of the same compound?
Answer: significant reduction of the hypotensive response
